Tests used:
[1] = test system: TRB3; experiment: TRB3 mRNA in Fao cells with L-Asp, L-Ala or both (quantitative PCR); format: cell-based, rat; conditions: 3 h, L-Asp 0.05 mM, L-Ala 0.03 mM or both
Description: (§1) Whether the suppressive effect of L-Asp on TRB3 expression in rat hepatocyte-derived Fao cells is increased by adding L-Ala as another amino acid was studied. Whether the expression of HNF-4α is increased was also studied. Fao cells were inoculated on a 24-well plate to an amount of 2×10^5 cells/well, and the cells were cultivated in a 10% fetal bovine serum-containing RPMI 1640 medium (supplied from Nacalai Tesque, Inc.; Code No. 30264-85) at 37° C. in an atmosphere of 5% CO2 overnight. On the following day, the medium was replaced with one of a 10% fetal bovine serum-containing RPMI medium from which all amino acids had been removed (minus amino acid medium; Table 1) and media corresponding to the minus amino acid medium, except with L-Asp (concentration: 0.05 mM), L-Ala (concentration: 0.03 mM), or both added, and the cells were further cultivated at 37° C. in 2.5% CO2 atmosphere for three hours. RNAs were extracted from the cultured cells, and the TRB3 mRNA levels and the HNF-4α mRNA levels were determined through quantitative polymerase chain reaction (PCR) (Table 10).

[2] = test system: HNF-4α; experiment: HNF-4α mRNA in Fao cells with L-Asp, L-Ala or both (quantitative PCR); format: cell-based, rat; conditions: 3 h, L-Asp 0.05 mM, L-Ala 0.03 mM or both
Description: as §1

[3] = test system: TRB3; experiment: Suppressive effects of amino acids on TRB3 expression in cultured hepatocytes (Fao cells, quantitative PCR); format: cell-based, rat; conditions: 3 h, minus amino acid medium plus one L-amino acid 1 mM (or standard medium), mRNA, minus amino acid medium = 1.00, n = 4, mean ± SD
Description: Suppressive effects of twenty-two amino acids on TRB3 expression in rat hepatic cancer-derived Fao cells were examined.
The standard medium is a medium corresponding to the minus amino acid medium, except for further containing amino acids listed in Table 2.
RNAs were extracted from the cultured cells, the expression levels of TRB3 gene were determined through quantitative polymerase chain reaction (PCR), and the suppressive effects of amino acids on TRB3 expression were determined and compared with data of TRB3 expression induced upon amino acid starvation. The gene expression was corrected with reference to β-actin expression level. The correction was carried out in the same manner in the after-mentioned genes.
The data were corrected and expressed while taking the average of TRB3 mRNA levels after three-hour cultivation in the minus amino acid medium as 1.00.

[4] = test system: GK rats fed with high-fat diets; experiment: GK rats fed with high-fat diets: body weight, fasting glucose, insulin, triglyceride, liver triglyceride; conditions: HFD with about 6% L-Asp or 0.01% pioglitazone
[5] = test system: TRB3; experiment: Suppressive effects of amino acids on TRB3 expression in cultured hepatocytes (Fao cells, quantitative PCR); format: cell-based, rat; conditions: other experiments; 1 mM
[6] = test system: glucose-6-phosphatase (G6Pase); experiment: Effect of L-Asp on G6Pase expression suppressive action of insulin in Fao cells (quantitative PCR); format: cell-based, rat; conditions: 6 h, no insulin = 1.00
Description: To verify whether an amino acid showing a TRB3 expression suppressive action actually increases the insulin action on hepatocytes, how L-Asp acts on glucose-6-phosphatase (G6Pase) expression suppressive action of insulin in rat hepatic cancer-derived Fao cells was studied.
Fao cells were inoculated on a 24-well plate and cultured overnight. Thereafter, 0, 0.3, and 1.0 mM L-Asp and 0, 10^−10, 10^−8, and 10^−6 M insulin were added respectively to a basal medium corresponding to RPMI 1640 medium containing no glucose but 0.1% BSA, except with L-Asp being removed therefrom, and the cells were further cultivated for six hours. RNAs were extracted from the cultured cells, and the expression levels of G6Pase were determined through quantitative PCR.
The G6Pase expression level in −Asp RPMI medium added with no insulin is defined as 1.00.
The values in the parentheses are values while defining the G6Pase expression levels in −Asp RPMI medium at respective insulin concentrations as 1.00, respectively.

[7] = before administration (baseline)

Question: Which results are given for C[C@H](N)C(=O)O [Ala, L-alanine]?
Answer: TRB3 mRNA level ([1]; minus amino acid medium = 1.00): 0.43; expression level of TRB3 mRNA ([1]; of minus amino acid medium): 43%; expression level of HNF-4α mRNA [2]: not increased; HNF4α mRNA level ([2]; minus amino acid medium = 1.00): 0.80

Question: For N[C@@H](CSSC[C@H](N)C(=O)O)C(=O)O [L-Cyt, cystine], which TRB3 expression level [3] is on record?
Answer: The TRB3 expression level was 0.487 ± 0.13.

Question: What about the TRB3 expression level ([3]; listed as cystine) of the same molecule?
Answer: Its TRB3 expression level is “significantly suppressed TRB3 expression”.

Question: Which results are given for NC(=O)CC[C@H](N)C(=O)O [L-Gln, glutamine]?
Answer: TRB3 expression level [3]: 0.750 ± 0.15; TRB3 expression level ([3]; listed as glutamine): significantly suppressed TRB3 expression

Question: NCC(=O)O [L-Gly, glycine] was tested. Which TRB3 expression level [3] did it give?
Answer: The TRB3 expression level was 0.665 ± 0.12.

Question: And the TRB3 expression level ([3]; listed as glycine)?
Answer: The TRB3 expression level was “significantly suppressed TRB3 expression”.

Question: For N[C@@H](Cc1c[nH]cn1)C(=O)O [L-His, histidine], which TRB3 expression level [3] is on record?
Answer: The TRB3 expression level was 0.643 ± 0.19.

Question: And the TRB3 expression level ([3]; listed as histidine)?
Answer: The TRB3 expression level was “significantly suppressed TRB3 expression”.

Question: Which “Fasting blood glucose level” value [4, 7] does the source give for CCc1ccc(CCOc2ccc(CC3SC(=O)NC3=O)cc2)nc1 (stereo not shown) [Pio, pioglitazone, reference compound] here?
Answer: Its value is 121 ± 37 mg/dL.

Question: What about the Fasting insulin level [4, 7] of the same molecule?
Answer: Its Fasting insulin level is 0.4 ± 0.3 ng/mL.

Question: What about the Fasting triglyceride level [4, 7] of the same molecule?
Answer: Its Fasting triglyceride level is 92 ± 19 mg/dL.

Question: And the Body weight ([4]; before administration (baseline), n = 6)?
Answer: Its Body weight is 222 ± 10 g.

Question: What about the “Fasting blood glucose level” value ([4]; week 3) of the same molecule?
Answer: The value was 127 ± 5 mg/dL.

Question: What about the Fasting insulin level ([4]; week 3) of the same molecule?
Answer: The Fasting insulin level was 1.9 ± 0.2 ng/mL.

Question: And the Fasting triglyceride level ([4]; week 3)?
Answer: The Fasting triglyceride level was 97 ± 16 mg/dL.

Question: What about the “Fasting blood glucose level” value ([4]; week 6) of the same molecule?
Answer: Its value is 109 ± 8 mg/dL.

Question: What about the Fasting insulin level ([4]; week 6) of the same molecule?
Answer: Its Fasting insulin level is 1.3 ± 0.5 ng/mL.

Question: And the Fasting triglyceride level ([4]; week 6)?
Answer: The Fasting triglyceride level was 75 ± 12 mg/dL.

Question: What about the “Triglyceride content in liver” value ([4]; week 6) of the same molecule?
Answer: The value was 36 ± 8 mg/g.

Question: Which TRB3 expression level [3] does the source give for N=C(N)NCCC[C@H](N)C(=O)O [arginine] here?
Answer: The TRB3 expression level was “do not show significantly suppressed TRB3 expression”.

Question: NC(=O)C[C@H](N)C(=O)O [asparagine] was tested. Which TRB3 expression level [3] did it give?
Answer: The TRB3 expression level was “do not show significantly suppressed TRB3 expression”.

Question: C[N+](C)(C)CC(=O)O [betaine, reference compound] was tested. Which “suppressive effect on TRB3 expression” value [5] did it give?
Answer: The value was “does not show a suppressive effect”.

Question: How did the TRB3 expression level [3] turn out when N[C@@H](CS)C(=O)O [cysteine] was run?
Answer: Its TRB3 expression level is “do not show significantly suppressed TRB3 expression”.

Question: How did the TRB3 expression level [3] turn out when N[C@@H](CCC(=O)O)C(=O)O [glutamic acid] was run?
Answer: Its TRB3 expression level is “do not show significantly suppressed TRB3 expression”.

Question: Which TRB3 expression level [3] does the source give for O=C(O)[C@@H]1C[C@@H](O)CN1 [hydroxyproline] here?
Answer: The TRB3 expression level was “do not show significantly suppressed TRB3 expression”.

Question: With CC[C@H](C)[C@H](N)C(=O)O [isoleucine] as the molecule, how does the TRB3 expression level [3] read?
Answer: The TRB3 expression level was “do not show significantly suppressed TRB3 expression”.

Question: Which TRB3 expression level [3] does the source give for CC(C)C[C@H](N)C(=O)O [leucine] here?
Answer: Its TRB3 expression level is “do not show significantly suppressed TRB3 expression”.

Question: How did the TRB3 expression level [3] turn out when NCCCC[C@H](N)C(=O)O [lysine] was run?
Answer: Its TRB3 expression level is “do not show significantly suppressed TRB3 expression”.

Question: How did the TRB3 expression level [3] turn out when CSCC[C@H](N)C(=O)O [methionine] was run?
Answer: The TRB3 expression level was “do not show significantly suppressed TRB3 expression”.

Question: Which TRB3 expression level [3] does the source give for N[C@@H](Cc1ccccc1)C(=O)O [phenylalanine] here?
Answer: The TRB3 expression level was “do not show significantly suppressed TRB3 expression”.

Question: How did the TRB3 expression level [3] turn out when O=C(O)[C@@H]1CCCN1 [proline] was run?
Answer: Its TRB3 expression level is “do not show significantly suppressed TRB3 expression”.

Question: N[C@@H](CO)C(=O)O [serine] was tested. Which TRB3 expression level [3] did it give?
Answer: Its TRB3 expression level is “do not show significantly suppressed TRB3 expression”.

Question: How did the TRB3 expression level [3] turn out when C[C@@H](O)[C@H](N)C(=O)O [threonine] was run?
Answer: The TRB3 expression level was “do not show significantly suppressed TRB3 expression”.

Question: For N[C@@H](Cc1c[nH]c2ccccc12)C(=O)O [tryptophan], which TRB3 expression level [3] is on record?
Answer: The TRB3 expression level was “do not show significantly suppressed TRB3 expression”.

Question: Which TRB3 expression level [3] does the source give for N[C@@H](Cc1ccc(O)cc1)C(=O)O [tyrosine] here?
Answer: The TRB3 expression level was “do not show significantly suppressed TRB3 expression”.

Question: With CC(C)[C@H](N)C(=O)O [valine] as the molecule, how does the TRB3 expression level [3] read?
Answer: Its TRB3 expression level is “do not show significantly suppressed TRB3 expression”.

Question: How did the G6Pase expression level ([6]; insulin 10^-6 M alone in -Asp RPMI) turn out when “insulin: insulin added to the Fao cell culture medium at 10^-10 to 10^-6 M [reference compound]” was run?
Answer: The G6Pase expression level was 0.023 (1.00).

Question: And the G6Pase expression level ([6]; insulin 10^-8 M alone in -Asp RPMI)?
Answer: Its G6Pase expression level is 0.032 (1.00).

Question: What about the G6Pase expression level ([6]; insulin 10^-10 M alone in -Asp RPMI) of the same molecule?
Answer: Its G6Pase expression level is 0.148 (1.00).

Source: patent publication US20080038321A1, “PROPHYLACTIC/THERAPEUTIC COMPOSITIONS FOR LIVER DISEASES” (Ajinomoto Co., Inc., priority 2004, published 2008)
